Laboratory results published in patent US20230114728A1 (Venatorx Pharmaceuticals, Inc., priority 2019, published 2023).
In brackets after ≈: the same amount, converted by molar mass. Like-named read-outs stand apart in the source and are kept apart here.

Assays:
Assay in all cases: Broth microdilution MIC in iron-depleted CAMHB (IDM)
Type in all cases: cell-based
[1] = tested on: A. baumannii ATCC 19606; details: Acinetobacter baumannii
In short: (§1)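 Colonies grow 3-5 h in iron-depleted broth at 37° C, are adjusted by OD600 to give 2-8×10^5 CFU/mL, and are added to 2-fold serial compound dilutions. After 16-20 h (Pseudomonas) or 20-24 h (Acinetobacter) at 37° C, the lowest concentration with no visible growth is the MIC.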

[2] = tested on: P. aeruginosa CDC-0054 producing VIM-4, OXA-50, and PAO; details: Pseudomonas aeruginosa, read-out: Minimum Inhibitory Concentration, P. aeruginosa CDC-0054
In short: as §1

[3] = tested on: P. aeruginosa CDC-0090 producing KPC-5, OXA-50, and PAO; details: Pseudomonas aeruginosa, read-out: Minimum Inhibitory Concentration, P. aeruginosa CDC-0090
In short: as §1

[4] = tested on: A. baumannii CDC-0083 producing NDM-1, PER-7, OXA-23, and OXA-69; details: Acinetobacter baumannii, read-out: Minimum Inhibitory Concentration, CDC-0083
In short: as §1

[5] = tested on: A. baumannii CDC-0033 producing NDM-1, and OXA-94; details: Acinetobacter baumannii, read-out: Minimum Inhibitory Concentration, CDC-0033
In short: as §1

[6] = tested on: A. baumannii CDC-0036 OXA-65, and OXA-24; details: Acinetobacter baumannii, read-out: Minimum Inhibitory Concentration, CDC-0036
In short: as §1

[7] = tested on: P. aeruginosa (ΔmexAB-oprM); details: Pseudomonas aeruginosa, read-out: Minimum Inhibitory Concentration, P. aeruginosa ΔmexAB-OprM
In short: as §1

[8] = tested on: A. baumannii ATCC 17978; details: Acinetobacter baumannii
In short: as §1

[9] = tested on: A. baumannii IL123 (ABΔ3-ARAEcPore); details: Acinetobacter baumannii, read-out: Minimum Inhibitory Concentration, IL-2123
In short: as §1

[10] = ATCC19606, read-out: Minimum Inhibitory Concentration, ATCC 19606
[11] = ATCC17978, read-out: Minimum Inhibitory Concentration, ATCC 17978

## NCCN1CCN(C(=O)N[C@@H](C(=O)N[C@H]2Cc3ccc(F)c(C(=O)O)c3OB2O)c2c(F)cc(O)c(O)c2Cl)C(=O)C1=O (single isomer, unassigned) [Example 26]
[1]; [10]
  MIC: 0.5 to 1 µg/mL (≈ 0.799 to 1.6 µM)
[2]
  MIC: 0.5 to 1 µg/mL (≈ 0.799 to 1.6 µM)
[3]
  MIC: 0.25 µg/mL (≈ 0.4 µM)
[4]
  MIC: 0.25 µg/mL (≈ 0.4 µM)
[5]
  MIC: 2 to 4 µg/mL (≈ 3.2 to 6.39 µM)
[6]
  MIC: 8 to 16 µg/mL (≈ 12.8 to 25.6 µM)
[7]
  MIC: 0.25 µg/mL (≈ 0.4 µM)
[8]; [11]
  MIC: 0.25 µg/mL (≈ 0.4 µM)

## NCCCN1CCN(C(=O)N[C@@H](C(=O)N[C@H]2Cc3ccc(F)c(C(=O)O)c3OB2O)c2c(F)cc(O)c(O)c2Cl)C(=O)C1=O (single isomer, unassigned) [Example 27]
[1]; [10]
  MIC: 0.25 µg/mL (≈ 0.391 µM)
[2]
  MIC: 0.25 µg/mL (≈ 0.391 µM)
[3]
  MIC: 0.25 µg/mL (≈ 0.391 µM)
[4]
  MIC: 0.25 µg/mL (≈ 0.391 µM)
[5]
  MIC: 0.5 to 1 µg/mL (≈ 0.782 to 1.56 µM)
[6]
  MIC: 2 to 4 µg/mL (≈ 3.13 to 6.25 µM)
[7]
  MIC: 0.25 µg/mL (≈ 0.391 µM)
[8]; [11]
  MIC: 0.25 µg/mL (≈ 0.391 µM)

## NCCCN1CCN(C(=O)N[C@H](C(=O)N[C@H]2Cc3ccc(F)c(C(=O)O)c3OB2O)c2ccc(O)c(O)c2Cl)C(=O)C1=O (single isomer, unassigned) [Example 28]
[1]; ATCC19606, A. baumannii ATCC 19606, iron-depleted MHB (IDM), read-out: Minimum Inhibitory Concentration, ATCC 19606
  MIC: 8 to 16 µg/mL (≈ 12.9 to 25.7 µM)
[2]
  MIC: 2 to 4 µg/mL (≈ 3.22 to 6.43 µM)
[3]
  MIC: 2 to 4 µg/mL (≈ 3.22 to 6.43 µM)
[4]
  MIC: 32 to 64 µg/mL (≈ 51.5 to 103 µM)
[5]
  MIC: 32 to 64 µg/mL (≈ 51.5 to 103 µM)
[9]
  MIC: 32 to 64 µg/mL (≈ 51.5 to 103 µM)
[6]
  MIC: 32 to 64 µg/mL (≈ 51.5 to 103 µM)
[7]
  MIC: 0.5 to 1 µg/mL (≈ 0.804 to 1.61 µM)
[8]; ATCC17978, A. baumannii ATCC 17978, iron-depleted MHB (IDM), read-out: Minimum Inhibitory Concentration, ATCC 17978
  MIC: 0.5 to 1 µg/mL (≈ 0.804 to 1.61 µM)

## O=C(O)c1c(F)ccc2c1OB(O)[C@@H](NC(=O)[C@H](NC(=O)N1CCNC1=O)c1c(F)cc(O)c(O)c1Cl)C2 (single isomer, unassigned) [Example 34]
[1]; [10]
  MIC: 0.25 µg/mL (≈ 0.451 µM)
[2]
  MIC: 0.5 to 1 µg/mL (≈ 0.901 to 1.8 µM)
[3]
  MIC: 0.5 to 1 µg/mL (≈ 0.901 to 1.8 µM)
[4]
  MIC: 0.5 to 1 µg/mL (≈ 0.901 to 1.8 µM)
[5]
  MIC: 0.5 to 1 µg/mL (≈ 0.901 to 1.8 µM)
[9]
  MIC: 2 to 4 µg/mL (≈ 3.61 to 7.21 µM)
[6]
  MIC: 0.5 to 1 µg/mL (≈ 0.901 to 1.8 µM)
[7]
  MIC: 0.25 µg/mL (≈ 0.451 µM)
[8]; [11]
  MIC: 0.25 µg/mL (≈ 0.451 µM)

## CS(=O)(=O)N1CCN(C(=O)N[C@@H](C(=O)N[C@H]2Cc3ccc(F)c(C(=O)O)c3OB2O)c2c(F)cc(O)c(O)c2Cl)C1=O (single isomer, unassigned) [Example 35]
[1]; [10]
  MIC: 0.25 µg/mL (≈ 0.395 µM)
[2]
  MIC: 0.5 to 1 µg/mL (≈ 0.79 to 1.58 µM)
[3]
  MIC: 0.5 to 1 µg/mL (≈ 0.79 to 1.58 µM)
[4]
  MIC: 0.25 µg/mL (≈ 0.395 µM)
[5]
  MIC: 0.5 to 1 µg/mL (≈ 0.79 to 1.58 µM)
[9]
  MIC: 2 to 4 µg/mL (≈ 3.16 to 6.32 µM)
[6]
  MIC: 0.5 to 1 µg/mL (≈ 0.79 to 1.58 µM)
[7]
  MIC: 0.25 µg/mL (≈ 0.395 µM)
[8]; [11]
  MIC: 0.25 µg/mL (≈ 0.395 µM)

## NCCN1CCN(C(=O)N[C@@H](C(=O)N[C@H]2Cc3ccc(F)c(C(=O)O)c3OB2O)c2c(F)cc(O)c(O)c2F)C(=O)C1=O (single isomer, unassigned) [Example 40]
[1]; [10]
  MIC: 0.5 to 1 µg/mL (≈ 0.821 to 1.64 µM)
[2]
  MIC: 8 to 16 µg/mL (≈ 13.1 to 26.3 µM)
[3]
  MIC: 8 to 16 µg/mL (≈ 13.1 to 26.3 µM)
[4]
  MIC: 0.5 to 1 µg/mL (≈ 0.821 to 1.64 µM)
[5]
  MIC: 2 to 4 µg/mL (≈ 3.28 to 6.57 µM)
[9]
  MIC: 8 to 16 µg/mL (≈ 13.1 to 26.3 µM)
[6]
  MIC: 2 to 4 µg/mL (≈ 3.28 to 6.57 µM)
[7]
  MIC: 0.25 µg/mL (≈ 0.41 µM)
[8]; [11]
  MIC: 0.25 µg/mL (≈ 0.41 µM)

## NCCCN1CCN(C(=O)N[C@@H](C(=O)N[C@H]2Cc3ccc(F)c(C(=O)O)c3OB2O)c2c(F)cc(O)c(O)c2F)C(=O)C1=O (single isomer, unassigned) [Example 41]
[1]; [10]
  MIC: 0.5 to 1 µg/mL (≈ 0.802 to 1.6 µM)
[2]
  MIC: 2 to 4 µg/mL (≈ 3.21 to 6.42 µM)
[3]
  MIC: 0.25 µg/mL (≈ 0.401 µM)
[4]
  MIC: 0.5 to 1 µg/mL (≈ 0.802 to 1.6 µM)
[5]
  MIC: 2 to 4 µg/mL (≈ 3.21 to 6.42 µM)
[9]
  MIC: 2 to 4 µg/mL (≈ 3.21 to 6.42 µM)
[6]
  MIC: 2 to 4 µg/mL (≈ 3.21 to 6.42 µM)
[7]
  MIC: 0.25 µg/mL (≈ 0.401 µM)
[8]; [11]
  MIC: 0.25 µg/mL (≈ 0.401 µM)

## O=C(O)c1ccc(C(NC(=O)c2ccc(O)c(O)c2Cl)C(=O)N[C@H]2Cc3cccc(C(=O)O)c3OB2O)cc1F (stereo partly drawn) [Example 7, (3R)-3-(2-(4-carboxy-3-fluorophenyl)-2-(2-chloro-3,4-dihydroxybenzamido)acetamido)-2-hydroxy-3,4-dihydro-2H-benzo[e][1,2]oxaborinine-8-carboxylic acid]
[1]; [10]
  MIC: 32 to 64 µg/mL (≈ 55.9 to 112 µM)
[2]
  MIC: 2 to 4 µg/mL (≈ 3.49 to 6.98 µM)
[3]
  MIC: 0.5 to 1 µg/mL (≈ 0.873 to 1.75 µM)
[4]
  MIC: 32 to 64 µg/mL (≈ 55.9 to 112 µM)
[5]
  MIC: 32 to 64 µg/mL (≈ 55.9 to 112 µM)
[9]
  MIC: 32 to 64 µg/mL (≈ 55.9 to 112 µM)
[6]
  MIC: 32 to 64 µg/mL (≈ 55.9 to 112 µM)
[7]
  MIC: 0.25 µg/mL (≈ 0.437 µM)
[8]; [11]
  MIC: 2 to 4 µg/mL (≈ 3.49 to 6.98 µM)
